Legend:
[1] = target: T1, Glucose-dependent insulinotropic receptor (Homo sapiens, UniProt Q8TDV5); assay: Agonist activity at human GPR119 expressed in CHO-K1 cells preincubated for 5 hrs followed by substrate addition measured after 2 hrs by fluorescence based assay; type: functional, cell-based
T1 sequence (Q8TDV5 whole entry): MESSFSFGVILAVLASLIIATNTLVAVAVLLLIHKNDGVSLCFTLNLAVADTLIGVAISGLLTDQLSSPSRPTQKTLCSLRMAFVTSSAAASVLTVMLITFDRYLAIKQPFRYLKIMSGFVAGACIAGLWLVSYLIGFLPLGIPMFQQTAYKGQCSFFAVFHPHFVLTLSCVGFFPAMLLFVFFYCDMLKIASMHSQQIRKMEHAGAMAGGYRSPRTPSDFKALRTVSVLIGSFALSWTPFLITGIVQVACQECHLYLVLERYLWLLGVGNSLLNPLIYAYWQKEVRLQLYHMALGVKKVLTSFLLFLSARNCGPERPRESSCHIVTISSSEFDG

Cytochrome P450 2C19 = Cytochrome P450 2C19 (Homo sapiens, UniProt P33261); assay: Inhibition of CYP2C19 (unknown origin) using 7-ethoxy-3-cyanocoumarin as substrate preincubated for 10 mins followed by addition of NADPH generating system measured after 30 mins by fluorescence based assay; type: ADME
[2] = Microsomal stability in mouse liver microsomes assessed as compound remaining at 5 uM measured after 60 mins in presence of NADPH by HPLC analysis; type: ADME, Microsome; conditions: read-out: Stability
Cytochrome P450 2C9 = Cytochrome P450 2C9 (Homo sapiens, UniProt P11712); assay: Inhibition of CYP2C9 (unknown origin) using 7-methoxy-4-trifluoromethylcoumarin as substrate preincubated for 10 mins followed by addition of NADPH generating system measured after 30 mins by fluorescence based assay; type: ADME
[3] = Agonist activity at GPR119 in Golden hamster HIT-T15 cells assessed as increase in intracellular cAMP level incubated for 1 hr by fluorescence based assay; type: cell-based; conditions: Mesocricetus auratus, HIT-T15, 1 h
Cytochrome P450 2D6 = Cytochrome P450 2D6 (Homo sapiens, UniProt P10635); assay: Inhibition of CYP2D6 (unknown origin) using 3-[2-(N,N-diethyl-N-methylammonium)ethyl]-7-methoxy-4-methylcoumarin as substrate preincubated for 10 mins followed by addition of NADPH generating system measured after 30 mins by fluorescence based assay; type: ADME
Cytochrome P450 3A4 = Cytochrome P450 3A4 (Homo sapiens, UniProt P08684); assay: Inhibition of CYP3A4 (unknown origin) using 7-benzyloxy-4-trifluoromethylcoumarin as substrate preincubated for 10 mins followed by addition of NADPH generating system measured after 30 mins by fluorescence based assay; type: ADME
[4] = Microsomal stability in human liver microsomes assessed as compound remaining at 5 uM measured after 60 mins in presence of NADPH by HPLC analysis; type: ADME, Microsome; conditions: read-out: Stability
[5] = Microsomal stability in dog liver microsomes assessed as compound remaining at 5 uM measured after 60 mins in presence of NADPH by HPLC analysis; type: ADME, Canis lupus familiaris, Microsome; conditions: read-out: Stability
Cytochrome P450 1A2 = target: T2, Cytochrome P450 1A2 (Homo sapiens, UniProt P05177); assay: Inhibition of CYP1A2 (unknown origin) using 7-ethoxy-3-cyanocoumarin as substrate preincubated for 10 mins followed by addition of NADPH generating system measured after 30 mins by fluorescence based assay; type: ADME
T2 sequence (P05177 whole entry): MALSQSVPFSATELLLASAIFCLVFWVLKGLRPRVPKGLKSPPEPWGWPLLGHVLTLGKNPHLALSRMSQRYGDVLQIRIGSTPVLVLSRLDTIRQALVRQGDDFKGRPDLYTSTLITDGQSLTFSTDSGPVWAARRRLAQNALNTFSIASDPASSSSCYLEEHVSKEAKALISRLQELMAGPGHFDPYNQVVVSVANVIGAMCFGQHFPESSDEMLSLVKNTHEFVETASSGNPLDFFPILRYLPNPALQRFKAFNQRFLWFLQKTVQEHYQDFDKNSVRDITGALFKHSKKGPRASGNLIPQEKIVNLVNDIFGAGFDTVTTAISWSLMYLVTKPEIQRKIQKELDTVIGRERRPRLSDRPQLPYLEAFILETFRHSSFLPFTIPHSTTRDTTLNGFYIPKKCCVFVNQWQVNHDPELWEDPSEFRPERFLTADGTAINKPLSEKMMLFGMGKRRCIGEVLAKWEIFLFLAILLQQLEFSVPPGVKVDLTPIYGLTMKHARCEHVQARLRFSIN

Rattus norvegicus = assay: Anti-diabetic activity in Sprague-Dawley rat assessed as reduction in AUC (0 to 2 hrs) at 3 mg/kg, po followed by oral administration of glucose measured for 2 hrs by OGTT assay relative to control; type: functional; parameters: scale not given: the % may be the effect or the level left
Mus musculus = assay: Anti-diabetic activity in C57BL mouse assessed as reduction in AUC (0 to 2 hrs) at 3 mg/kg, po followed by oral administration of glucose measured for 2 hrs by OGTT assay relative to control; type: functional; parameters: scale not given: the % may be the effect or the level left
[6] = AUC (0 to 24 hrs) in Sprague-Dawley rat at 5 mg/kg, po; type: ADME, organism-based; conditions: in vivo
[7] = Half life in Sprague-Dawley rat at 5 mg/kg, po; type: ADME, organism-based; conditions: in vivo
[8] = Oral bioavailability in Sprague-Dawley rat at 5 mg/kg; type: ADME, organism-based; conditions: in vivo
[9] = MRTlast in ICR mouse at 10 mg/kg, po; type: ADME, organism-based; conditions: in vivo
[10] = MRTlast in Sprague-Dawley rat at 5 mg/kg, po; type: ADME, organism-based; conditions: in vivo
[11] = AUC (0 to 24 hrs) in ICR mouse at 10 mg/kg, po; type: ADME, organism-based; conditions: in vivo
[12] = Half life in ICR mouse at 1 mg/kg, iv; type: ADME, organism-based; conditions: in vivo
[13] = Cmax in Sprague-Dawley rat at 5 mg/kg, po; type: ADME, organism-based; conditions: in vivo
[14] = AUC (0 to 24 hrs) in Sprague-Dawley rat at 1 mg/kg, iv; type: ADME, organism-based; conditions: in vivo
[15] = Half life in Sprague-Dawley rat at 1 mg/kg, iv; type: ADME, organism-based; conditions: in vivo
[16] = Half life in ICR mouse at 10 mg/kg, po; type: ADME, organism-based; conditions: in vivo
[17] = Clearance in ICR mouse at 1 mg/kg, iv; type: ADME, organism-based; conditions: in vivo
[18] = Oral bioavailability in ICR mouse at 10 mg/kg; type: ADME, organism-based; conditions: in vivo
[19] = Microsomal stability in rat liver microsomes assessed as compound remaining at 5 uM measured after 60 mins in presence of NADPH by HPLC analysis; type: ADME, Microsome; conditions: read-out: Stability
[20] = MRTlast in Sprague-Dawley rat at 1 mg/kg, iv; type: ADME, organism-based; conditions: in vivo
[21] = Cmax in ICR mouse at 10 mg/kg, po; type: ADME, organism-based; conditions: in vivo
[22] = Tmax in ICR mouse at 10 mg/kg, po; type: ADME, organism-based; conditions: in vivo
[23] = Tmax in Sprague-Dawley rat at 5 mg/kg, po; type: ADME, organism-based; conditions: in vivo
[24] = MRTlast in ICR mouse at 1 mg/kg, iv; type: ADME, organism-based; conditions: in vivo
[25] = Clearance in Sprague-Dawley rat at 1 mg/kg, iv; type: ADME, organism-based; conditions: in vivo
[26] = Volume of distribution in Sprague-Dawley rat at 1 mg/kg, iv; type: ADME, organism-based; conditions: in vivo
[27] = Volume of distribution in ICR mouse at 1 mg/kg, iv; type: ADME, organism-based; conditions: in vivo
[28] = AUC (0 to 24 hrs) in ICR mouse at 1 mg/kg, iv; type: ADME, organism-based; conditions: in vivo

Chain of Cytochrome P450 3A4 (P08684 whole entry): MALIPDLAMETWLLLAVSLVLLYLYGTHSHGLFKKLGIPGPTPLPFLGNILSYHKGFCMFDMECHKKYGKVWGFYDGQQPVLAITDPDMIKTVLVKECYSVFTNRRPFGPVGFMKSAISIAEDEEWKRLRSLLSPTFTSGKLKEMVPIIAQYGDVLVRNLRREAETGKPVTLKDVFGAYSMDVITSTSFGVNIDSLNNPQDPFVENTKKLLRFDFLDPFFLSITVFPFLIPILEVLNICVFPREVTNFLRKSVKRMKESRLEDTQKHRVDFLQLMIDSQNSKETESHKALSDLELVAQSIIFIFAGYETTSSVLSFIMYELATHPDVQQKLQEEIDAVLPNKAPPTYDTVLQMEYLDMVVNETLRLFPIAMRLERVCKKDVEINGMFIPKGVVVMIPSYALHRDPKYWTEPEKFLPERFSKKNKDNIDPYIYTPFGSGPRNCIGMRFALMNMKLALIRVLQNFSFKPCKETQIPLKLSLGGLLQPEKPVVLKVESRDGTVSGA
Chain of Cytochrome P450 2C9 (P11712 whole entry): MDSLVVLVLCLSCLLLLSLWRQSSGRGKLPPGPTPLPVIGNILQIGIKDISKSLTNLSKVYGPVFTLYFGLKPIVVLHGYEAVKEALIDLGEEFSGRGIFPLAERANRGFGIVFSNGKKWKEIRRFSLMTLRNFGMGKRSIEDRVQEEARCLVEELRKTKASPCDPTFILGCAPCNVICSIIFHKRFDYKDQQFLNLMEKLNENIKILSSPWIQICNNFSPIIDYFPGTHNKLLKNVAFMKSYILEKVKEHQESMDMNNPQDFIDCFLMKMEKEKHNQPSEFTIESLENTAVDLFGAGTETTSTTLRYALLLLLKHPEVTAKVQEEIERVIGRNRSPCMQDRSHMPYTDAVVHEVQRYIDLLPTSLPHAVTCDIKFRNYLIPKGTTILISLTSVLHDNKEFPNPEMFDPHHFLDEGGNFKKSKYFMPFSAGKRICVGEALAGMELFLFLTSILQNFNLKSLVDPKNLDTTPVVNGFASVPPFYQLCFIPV
Chain of Cytochrome P450 2C19 (P33261 whole entry): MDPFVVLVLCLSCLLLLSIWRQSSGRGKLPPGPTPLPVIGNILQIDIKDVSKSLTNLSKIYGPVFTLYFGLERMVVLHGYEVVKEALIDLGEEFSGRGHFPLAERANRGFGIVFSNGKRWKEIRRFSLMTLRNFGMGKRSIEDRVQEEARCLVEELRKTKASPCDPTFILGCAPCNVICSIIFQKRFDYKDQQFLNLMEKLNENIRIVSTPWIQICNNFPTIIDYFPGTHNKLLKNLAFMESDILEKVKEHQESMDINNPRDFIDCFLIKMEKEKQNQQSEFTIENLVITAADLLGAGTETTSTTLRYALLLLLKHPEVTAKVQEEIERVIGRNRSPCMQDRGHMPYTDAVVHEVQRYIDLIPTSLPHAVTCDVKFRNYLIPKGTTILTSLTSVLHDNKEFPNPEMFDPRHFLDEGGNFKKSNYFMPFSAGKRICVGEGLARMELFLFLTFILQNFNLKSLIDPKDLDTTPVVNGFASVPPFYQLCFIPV
Chain of Cytochrome P450 2D6 (P10635 whole entry): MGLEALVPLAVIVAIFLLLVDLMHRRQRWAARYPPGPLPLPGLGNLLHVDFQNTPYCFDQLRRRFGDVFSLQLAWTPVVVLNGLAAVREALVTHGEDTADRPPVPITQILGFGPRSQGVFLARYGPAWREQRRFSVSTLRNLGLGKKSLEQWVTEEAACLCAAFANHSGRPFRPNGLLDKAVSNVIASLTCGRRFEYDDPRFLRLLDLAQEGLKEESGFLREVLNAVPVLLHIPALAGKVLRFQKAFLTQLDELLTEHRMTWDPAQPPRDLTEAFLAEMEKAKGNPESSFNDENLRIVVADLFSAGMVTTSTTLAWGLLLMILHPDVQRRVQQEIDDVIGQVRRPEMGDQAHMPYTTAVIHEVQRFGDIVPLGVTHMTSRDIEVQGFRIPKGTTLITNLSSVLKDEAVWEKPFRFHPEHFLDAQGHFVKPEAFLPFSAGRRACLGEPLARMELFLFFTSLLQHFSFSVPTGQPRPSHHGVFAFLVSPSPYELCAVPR

## CC(C)c1noc(C2CCN(c3ncnc4c(-c5ccc(S(C)(=O)=O)cc5)csc34)CC2)n1
[1]
  EC50: 11.7 nM
Cytochrome P450 2C19
  IC50: 3680 nM
[2]
  remaining at 1 h, 5 µM: 21%
Cytochrome P450 2C9
  IC50: < 620 nM
[3]
  EC50: 11.5 nM
Cytochrome P450 2D6
  IC50: > 50000 nM
Cytochrome P450 3A4
  IC50: 12000 nM
[4]
  remaining at 1 h, 5 µM: 13%
[5]
  remaining at 1 h, 5 µM: 6%
Cytochrome P450 1A2
  IC50: > 50000 nM

## CCN(c1ncnc2c(-c3ccc(S(C)(=O)=O)cc3)csc12)C1CCN(c2ccc(C(F)(F)F)cn2)CC1
[1]
  EC50: > 100 nM

## CS(=O)(=O)c1ccc(-c2csc3c(OC4CCNCC4)ncnc23)c(F)c1
[1]
  EC50: > 100 nM

## CN(c1ncnc2c(-c3ccc(S(C)(=O)=O)cc3)csc12)C1CCN(C(=O)OC(C)(C)C)CC1
[1]
  EC50: 33.8 nM
[3]
  EC50: 19.1 nM

## CS(=O)(=O)c1ccc(-c2csc3c(N4CCC(c5nc(C6CC6)no5)CC4)ncnc23)cc1
[1]
  EC50: 23.9 nM
[3]
  EC50: 16.8 nM

## CC(C)(C)OC(=O)N1CCC(Oc2ncnc3c(-c4ccc(S(C)(=O)=O)cc4F)csc23)CC1
[1]
  EC50: 1.4 nM

## CCc1cnc(N2CCC(c3nc(COc4ccc(-n5cnnn5)cc4)cs3)CC2)nc1 [MBX-2982]
[1]
  EC50: 3.1 nM
[3]
  EC50: 2 nM
Rattus norvegicus
  Activity: 7.3%
Mus musculus
  Activity: 29%

## CC(C)c1noc(N2CCC(Oc3ncnc4c(-c5ccc(S(C)(=O)=O)cc5F)csc34)CC2)n1
[6]
  AUC(0-t): 5720 ng·h/mL
[7]
  half-life: 2.4 h
[8]
  bioavailability: 61.5%
[1]
  EC50: 6.3 nM
Cytochrome P450 2C19
  IC50: 5550 nM
[9]
  MRT last: 3.8 h
[2]
  remaining at 1 h, 5 µM: 38%
[10]
  MRT last: 3.2 h
[11]
  AUC(0-t): 32700 ng·h/mL
[12]
  half-life: 3.4 h
[13]
  Cmax: 1480 ng/mL
Cytochrome P450 2C9
  IC50: > 50000 nM
[14]
  AUC(0-t): 1860 ng·h/mL
[15]
  half-life: 2.8 h
[3]
  EC50: 22.8 nM
Cytochrome P450 2D6
  IC50: > 50000 nM
[16]
  half-life: 2.2 h
[17]
  clearance: 5 mL/min/kg
[18]
  bioavailability: > 100%
[19]
  remaining at 1 h, 5 µM: 48%
Cytochrome P450 3A4
  IC50: 3790 nM
[4]
  remaining at 1 h, 5 µM: 35%
[5]
  remaining at 1 h, 5 µM: 62%
[20]
  MRT last: 3.6 h
[21]
  Cmax: 9130 ng/mL
Rattus norvegicus
  Activity: 15%
[22]
  Tmax: 0.5 h
[23]
  Tmax: 1 h
[24]
  MRT last: 3 h
[25]
  clearance: 5 mL/min/kg
Mus musculus
  Activity: 37.4%
[26]
  Vd: 1.2 L/kg
[27]
  Vd: 1.2 L/kg
[28]
  AUC(0-t): 2770 ng·h/mL
Cytochrome P450 1A2
  IC50: > 50000 nM

## CS(=O)(=O)c1ccc(-c2csc3c(OC4CCN(c5nc(C6CCCC6)no5)CC4)ncnc23)cc1
[1]
  EC50: 5.6 nM
[3]
  EC50: > 1000 nM

## CCc1cnc(N2CCC(N(C)c3ncnc4c(-c5ccc(S(C)(=O)=O)cc5)csc34)CC2)nc1
[1]
  EC50: 7.4 nM
[3]
  EC50: 35.9 nM

## CS(=O)(=O)c1ccc(-c2csc3c(N4CCCCC4)ncnc23)cc1
[1]
  EC50: > 100 nM

## CS(=O)(=O)c1ccc(-c2csc3c(N4CCC(c5nc(C6CCCCC6)no5)CC4)ncnc23)cc1
[1]
  EC50: 12.5 nM
[3]
  EC50: 32.5 nM

## CS(=O)(=O)c1ccc(-c2csc3c(N4CCC(c5nc(C6CCCC6)no5)CC4)ncnc23)c(F)c1
[1]
  EC50: 1.9 nM
[3]
  EC50: 86.3 nM

## CC(C)(C)OC(=O)N1CCC(Nc2ncnc3c(-c4ccc(S(C)(=O)=O)cc4)csc23)CC1
[1]
  EC50: > 100 nM

## CS(=O)(=O)c1ccc(-c2csc3c(OC4CCN(c5nc(C6CC6)no5)CC4)ncnc23)cc1
[1]
  EC50: 24.8 nM
[3]
  EC50: 47 nM

## CS(=O)(=O)c1ccc(-c2csc3c(N4CCCC4)ncnc23)cc1
[1]
  EC50: > 100 nM

## CN1CCC(Oc2ncnc3c(-c4ccc(S(C)(=O)=O)cc4F)csc23)CC1
[1]
  EC50: > 100 nM

## CCCc1noc(N2CCC(Oc3ncnc4c(-c5ccc(S(C)(=O)=O)cc5F)csc34)CC2)n1
[1]
  EC50: 2.1 nM

## CCc1cnc(N2CCC(Oc3ncnc4c(-c5ccc(S(C)(=O)=O)cc5)csc34)C2)nc1 (configuration not stated)
[1]
  EC50: 74.8 nM

## CC(C)c1noc(N2CCC(Oc3ncnc4c(-c5ccc(S(C)(=O)=O)cc5)csc34)C2)n1 (configuration not stated)
[1]
  EC50: 754 nM

## CCc1cnc(N2CCC(N(CC)c3ncnc4c(-c5ccc(S(C)(=O)=O)cc5)csc34)CC2)nc1
[1]
  EC50: 15 nM
[3]
  EC50: 153 nM

## CC(C)(C)c1noc(N2CCC(Oc3ncnc4c(-c5ccc(S(C)(=O)=O)cc5F)csc34)CC2)n1
[1]
  EC50: 3.6 nM

## CS(=O)(=O)c1ccc(-c2csc3c(N4CCC(c5nc(C6CCCC6)no5)CC4)ncnc23)cc1
[1]
  EC50: 8.7 nM
[2]
  remaining at 1 h, 5 µM: 23%
[3]
  EC50: 16 nM
[19]
  remaining at 1 h, 5 µM: 9%
[5]
  remaining at 1 h, 5 µM: 10%

## CCN(c1ncnc2c(-c3ccc(S(C)(=O)=O)cc3)csc12)C1CCN(C(=O)OC(C)(C)C)CC1
[1]
  EC50: > 100 nM
